Legend:
[1] = test system: TGF-β-stimulated SMAD3 phosphorylation in BEAS-2B cells; test: Cellular ALK5 potency assay, inhibition of TGF-β stimulated pSMAD3 formation in BEAS-2B cells; format: cell-based; conditions: Homo sapiens, inhibition of TGF-β (10 ng/mL) stimulated pSMAD3 formation, 1 hour compound incubation, read-out: BEAS2B pIC50 (converted)
Method in brief: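 Phospho-SMAD3 was quantified by AlphaLISA in lysates of human lung epithelial BEAS-2B cells. Compound was added 1 h (37 °C, HEPES/BSA-supplemented HBSS) before a 30 min challenge with 10 ng/mL TGF-β. Values are pIC50 relative to stimulated cells without compound.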

[2] = target: T1, recombinant human ALK5 (TGF-βR1) protein (Homo sapiens, UniProt P36897); test: Biochemical ALK5 (TGF-βR1) assay to measure pKi (LANCE Ultra ULight kinase assay); conditions: apparent pKi, converted from pIC50 using the Cheng-Prusoff equation
T1 construct: purchased Life Technologies PR9075A
T1 sequence (P36897 34-503): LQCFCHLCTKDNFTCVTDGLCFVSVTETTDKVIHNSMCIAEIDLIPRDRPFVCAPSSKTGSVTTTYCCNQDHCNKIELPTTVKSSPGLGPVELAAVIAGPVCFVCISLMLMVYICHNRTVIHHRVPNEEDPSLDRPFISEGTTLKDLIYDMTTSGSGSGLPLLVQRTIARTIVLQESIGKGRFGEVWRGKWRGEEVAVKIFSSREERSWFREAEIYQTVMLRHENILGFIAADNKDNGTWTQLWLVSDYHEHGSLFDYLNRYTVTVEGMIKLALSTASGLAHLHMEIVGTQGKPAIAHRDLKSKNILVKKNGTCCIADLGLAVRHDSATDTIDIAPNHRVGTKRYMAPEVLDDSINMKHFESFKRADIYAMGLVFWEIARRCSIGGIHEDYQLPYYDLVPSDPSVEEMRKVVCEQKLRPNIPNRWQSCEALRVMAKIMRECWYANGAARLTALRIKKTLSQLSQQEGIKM
Method in brief: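 TR-FRET kinase format: compound dose range 10 μM–25 pM equilibrated 60 min with human ALK5 and ULight-labelled topoisomerase 2α peptide in HEPES/MgCl2 buffer pH 7.5 with DTT. Reaction started with ATP (125 μM stock, 5× final), 60 min at 37° C, stopped with EDTA/Eu-anti-phospho antibody; pKi derived from pIC50 via Cheng-Prusoff.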

## Fc1cc(F)c(-c2n[nH]cc2-c2ccc3ncc(-c4[nH]nc5c4CCNC5)cc3n2)cc1Cl [Compound 6-53, 2-[3-(5-chloro-2,4-difluoro-phenyl)-1H-pyrazol-4-yl]-7-(4,5,6,7-tetrahydro-2H-pyrazolo[3,4-c]pyridin-3-yl)-1,5-naphthyridine]
[1]
  IC50: 25.1 to 158 nM
[2]
  Ki: 0.0398 to 0.316 nM

## Fc1ccc(Cl)cc1-c1[nH]cnc1-c1ccc2ncc(N3CCNCC3)cc2c1 [Compound 17-4, 6-(5-(5-chloro-2-fluorophenyl)-1H-imidazol-4-yl)-3-(piperazin-1-yl)quinoline]
[1]
  IC50: 25.1 to 158 nM
[2]
  Ki: 0.398 to 3.16 nM

## COC(=O)[C@H]1CN(c2cnc3ccc(-c4c[nH]nc4-c4cc(Cl)c(F)cc4F)nc3c2)CCN1 [Compound 6-27, methyl (2R)-4-[6-[3-(5-chloro-2,4-difluoro-phenyl)-1H-pyrazol-4-yl]-1,5-naphthyridin-3-yl]piperazine-2-carboxylate]
[1]
  IC50: 25.1 to 158 nM
[2]
  Ki: 0.398 to 3.16 nM

## CC(C)N1CCN(CCNc2cnc3ccc(-c4nc[nH]c4-c4ccc(F)c(F)c4)nc3c2)CC1 [Compound 9-2, 6-[5-(3,4-difluorophenyl)-1H-imidazol-4-yl]-N-[2-(4-isopropylpiperazin-1-yl)ethyl]-1,5-naphthyridin-3-amine]
[1]
  IC50: 25.1 to 158 nM
[2]
  Ki: 3.98 to 31.6 nM

## Cc1oc(=O)oc1CN1CCN(c2cnc3ccc(-c4nc[nH]c4-c4cc(Cl)ccc4F)nc3c2)CC1 [Compound 2-37, 4-[[4-[6-[5-(5-chloro-2-fluoro-phenyl)-1H-imidazol-4-yl]-1,5-naphthyridin-3-yl]piperazin-1-yl]methyl]-5-methyl-1,3-dioxol-2-one]
[1]
  IC50: 200 to 1260 nM
[2]
  Ki: 0.0398 to 0.316 nM

## CNC(=O)C1CN(c2cnc3ccc(-c4c[nH]nc4-c4cc(Cl)ccc4F)nc3c2)CCN1C (racemic) [Compound 1-77, rac-(2R)-4-[6-[3-(5-chloro-2-fluoro-phenyl)-1H-pyrazol-4-yl]-1,5-naphthyridin-3-yl]-N,1-dimethyl-piperazine-2-carboxamide]
[1]
  IC50: 25.1 to 158 nM
[2]
  Ki: 0.0398 to 0.316 nM

## CC1(C)CCCN1CCNc1cnc2ccc(-c3c[nH]nc3-c3cc(Cl)c(F)cc3F)nc2c1 [Compound 6-5, 6-[3-(5-chloro-2,4-difluoro-phenyl)-1H-pyrazol-4-yl]-N-[2-(2,2-dimethylpyrrolidin-1-yl)ethyl]-1,5-naphthyridin-3-amine]
[1]
  IC50: 25.1 to 158 nM
[2]
  Ki: 0.0398 to 0.316 nM

## CN(CC1CNC1)c1cnc2ccc(-c3c[nH]nc3-c3cc(Cl)ccc3F)nc2c1 [Compound 1-41, N-(azetidin-3-ylmethyl)-6-[3-(5-chloro-2-fluoro-phenyl)-1H-pyrazol-4-yl]-N-methyl-1,5-naphthyridin-3-amine]
[1]
  IC50: 25.1 to 158 nM
[2]
  Ki: 0.0398 to 0.316 nM

## CN(C)C1CCN(c2cnc3ccc(-c4c(-c5cc(Cl)ccc5F)nc5ccccn45)cc3c2)C1 (racemic) [Compound 19-7, rac-(3S)-1-[6-[2-(5-chloro-2-fluoro-phenyl)imidazo[1,2-a]pyridin-3-yl]-3-quinolyl]-N,N-dimethyl-pyrrolidin-3-amine]
[1]
  IC50: 200 to 1260 nM
[2]
  Ki: 0.0398 to 0.316 nM

## Fc1ccc(Cl)cc1-c1n[nH]cc1-c1ccc2ncc(-c3nc(C(F)(F)F)n4c3CNCC4)cc2n1 [Compound 1-119, 2-[3-(5-chloro-2-fluoro-phenyl)-1H-pyrazol-4-yl]-7-[3-(trifluoromethyl)-5,6,7,8-tetrahydroimidazo[1,5-a]pyrazin-1-yl]-1,5-naphthyridine]
[1]
  IC50: 25.1 to 158 nM
[2]
  Ki: 0.398 to 3.16 nM

## Fc1ccc(-c2[nH]cnc2-c2ccc3ncc(NCCN4CCNCC4)cc3c2)cc1F [Compound 23-5, 6-[5-(3,4-difluorophenyl)-1H-imidazol-4-yl]-N-(2-piperazin-1-ylethyl)quinolin-3-amine]
[1]
  IC50: 200 to 1260 nM
[2]
  Ki: 3.98 to 31.6 nM

## CC(C)N1CC2CN(c3cnc4ccc(-c5c[nH]nc5-c5cc(Cl)ccc5F)nc4c3)C2C1 (stereo not shown) [Compound 1-73, 2-[3-(5-chloro-2-fluoro-phenyl)-1H-pyrazol-4-yl]-7-(3-isopropyl-3,6-diazabicyclo[3.2.0]heptan-6-yl)-1,5-naphthyridine]
[1]
  IC50: 25.1 to 158 nM
[2]
  Ki: 3.98 to 31.6 nM

## COCc1cccc(-c2n[nH]cc2-c2ccc3ncc(N4CCC(N5CCCC5)CC4)cc3n2)c1 [Compound 14-3, 2-[3-[3-(methoxymethyl)phenyl]-1H-pyrazol-4-yl]-7-(4-pyrrolidin-1-yl-1-piperidyl)-1,5-naphthyridine]
[1]
  IC50: 25.1 to 158 nM
[2]
  Ki: 3.98 to 31.6 nM

## CNCCn1cc(-c2cnc3ccc(-c4c(-c5cc(Cl)ccc5F)[nH]c5cccnc45)nc3c2)cn1 [Compound 25-2, 2-[4-[6-[2-(5-chloro-2-fluoro-phenyl)-1H-pyrrolo[3,2-b]pyridin-3-yl]-1,5-naphthyridin-3-yl]pyrazol-1-yl]-N-methyl-ethanamine]
[1]
  IC50: 200 to 1260 nM
[2]
  Ki: 0.398 to 3.16 nM

## Fc1ccc(Cl)cc1-c1[nH]cnc1-c1ccc2ncc(NC[C@@H]3CCCN3)cc2n1 [Compound 2-30, 6-[5-(5-chloro-2-fluoro-phenyl)-1H-imidazol-4-yl]-N-[[(2S)-pyrrolidin-2-yl]methyl]-1,5-naphthyridin-3-amine]
[1]
  IC50: 200 to 1260 nM
[2]
  Ki: 0.398 to 3.16 nM

## CN1CC=C(c2nc3n(n2)CCN(c2cnc4ccc(-c5nc[nH]c5-c5cc(Cl)ccc5F)nc4c2)C3)C1 [Compound 2-15, 2-(5-(5-chloro-2-fluorophenyl)-1H-imidazol-4-yl)-7-(2-(1-methyl-2,5-dihydro-1H-pyrrol-3-yl)-5,6-dihydro-[1,2,4]triazolo[1,5-a]pyrazin-7(8H)-yl)-1,5-naphthyridine]
[1]
  IC50: 25.1 to 158 nM
[2]
  Ki: ≤ 0.0316 nM

## NC(=O)C1CN(c2cnc3ccc(-c4c[nH]nc4-c4cc(Cl)ccc4F)nc3c2)CCN1 (racemic) [Compound 1-50, rac-(2S)-4-[6-[3-(5-chloro-2-fluoro-phenyl)-1H-pyrazol-4-yl]-1,5-naphthyridin-3-yl]piperazine-2-carboxamide]
[1]
  IC50: 25.1 to 158 nM
[2]
  Ki: 0.398 to 3.16 nM

## Fc1ccc(Cl)cc1-c1nc2ccccn2c1-c1ccc2ncc(N3CCCNCC3)cc2n1 [Compound 3-3, 2-[2-(5-chloro-2-fluoro-phenyl)imidazo[1,2-a]pyridin-3-yl]-7-(1,4-diazepan-1-yl)-1,5-naphthyridine]
[1]
  IC50: 25.1 to 158 nM
[2]
  Ki: 0.0398 to 0.316 nM

## COCc1cccc(-c2n[nH]cc2-c2ccc3ncc(-c4cnn(CC5CNC5)c4)cc3n2)c1 [Compound 14-11, 7-[1-(azetidin-3-ylmethyl)pyrazol-4-yl]-2-[3-[3-(methoxymethyl)phenyl]-1H-pyrazol-4-yl]-1,5-naphthyridine]
[1]
  IC50: 25.1 to 158 nM
[2]
  Ki: 0.0398 to 0.316 nM

## NC1CC=C(c2cnc3ccc(-c4c[nH]nc4-c4cc(Cl)ccc4F)nc3c2)CC1 (stereo not shown) [Compound 1-91, 4-(6-(3-(5-chloro-2-fluorophenyl)-1H-pyrazol-4-yl)-1,5-naphthyridin-3-yl)cyclohex-3-en-1-amine]
[1]
  IC50: ≤ 20 nM
[2]
  Ki: 0.0398 to 0.316 nM

## CNC1CCN(c2cnc3ccc(-c4c[nH]nc4-c4cc(Cl)c(F)cc4F)nc3c2)CC1 [Compound 6-23, 1-(6-(3-(5-chloro-2,4-difluorophenyl)-1H-pyrazol-4-yl)-1,5-naphthyridin-3-yl)-N-methylpiperidin-4-amine]
[1]
  IC50: 25.1 to 158 nM
[2]
  Ki: 0.0398 to 0.316 nM

## CNC1CCN(c2cnc3ccc(-c4c[nH]nc4-c4cc(Cl)ccc4F)nc3c2)CC1 [Compound 1-60, 1-[6-[3-(5-chloro-2-fluoro-phenyl)-1H-pyrazol-4-yl]-1,5-naphthyridin-3-yl]-N-methyl-piperidin-4-amine]
[1]
  IC50: 25.1 to 158 nM
[2]
  Ki: 0.0398 to 0.316 nM

## CC(C)N1CCN(CCNc2cnc3ccc(-c4nc[nH]c4-c4cc(Cl)ccc4F)nc3c2)CC1 [Compound 2-2, 6-[5-(5-chloro-2-fluoro-phenyl)-1H-imidazol-4-yl]-N-[2-(4-isopropylpiperazin-1-yl)ethyl]-1,5-naphthyridin-3-amine]
[1]
  IC50: 25.1 to 158 nM
[2]
  Ki: 0.0398 to 0.316 nM

## Fc1ccc(Cl)cc1-c1nc2ccccn2c1-c1ccc2ncc(-c3cn[nH]c3)cc2c1 [Compound 19-3, 6-[2-(5-chloro-2-fluoro-phenyl)imidazo[1,2-a]pyridin-3-yl]-3-(1H-pyrazol-4-yl)quinoline]
[1]
  IC50: 25.1 to 158 nM
[2]
  Ki: 0.398 to 3.16 nM

## CN(C)C(=O)[C@H]1CN(c2cnc3ccc(-c4c[nH]nc4-c4cc(Cl)ccc4F)nc3c2)CCN1 [Compound 1-61, (2R)-4-[6-[3-(5-chloro-2-fluoro-phenyl)-1H-pyrazol-4-yl]-1,5-naphthyridin-3-yl]-N,N-dimethyl-piperazine-2-carboxamide]
[1]
  IC50: 25.1 to 158 nM
[2]
  Ki: 0.398 to 3.16 nM

## Fc1ccc(Cl)cc1-c1n[nH]cc1-c1ccc2ncc(-c3nnn4c3NCC4)cc2n1 [Compound 1-123, 2-[3-(5-chloro-2-fluoro-phenyl)-1H-pyrazol-4-yl]-7-(5,6-dihydro-4H-imidazo[1,2-c]triazol-3-yl)-1,5-naphthyridine]
[1]
  IC50: 25.1 to 158 nM
[2]
  Ki: 0.0398 to 0.316 nM

From patent US11730720B2, “ALK5 inhibitors” (THERAVANCE BIOPHARMA R&D IP, LLC, priority 2018, dated 2023)
